Experimental data as given in article PMC11576293, “New series of 4,6-diaryl pyrimidines: facile synthesis and antiproliferative activity as dual EGFR/VEGFR-2 inhibitors” (Frontiers in Chemistry, 2024).

Tests used:
EKVX = experiment: NCI-60 single-dose screen; format: cell-based; conditions: Homo sapiens, single dose 10 µM, '-' = no inhibition, read-out: % Growth Inhibition
Protocol: (§1) The National Cancer Institute’s Developmental Therapeutic Program (www.dtp.nci.nih.gov) has tested compounds 9–29 (except compounds 21 and 22) against 60 cancer cell lines from nine types (leukemia, lung, colon, CNS, melanoma, ovarian, renal, prostate, and breast cancer) at a single dose (10 μM) ([El-Sherief et al., 2018]). […] The most sensitive cells included leukemia (SR, K-562, and MOLT-4), lung (NCI-H522, […], and EKVX), breast (MCF-7 and T-47D), colon (HCT-15 and HT-29), and ovarian (NCI/ADR-RES).
(§2) The National Cancer Institute’s Developmental Therapeutic Program (www.dtp.nci.nih.gov) evaluated compounds 9–29 (excluding 21 and 22) against 60 cancer cell lines from nine categories (leukemia, lung, colon, CNS, melanoma, ovarian, renal, prostate, and breast cancer) at a single dose (10 μM) ([El-Sherief et al., 2018]). See Supplementary Material A1 for more details.

RPMI-8226 = experiment: NCI-60 single-dose screen; format: cell-based; conditions: Homo sapiens, single dose 10 µM, '-' = no inhibition, read-out: % Growth Inhibition
Protocol: as §1, §2

ACHN 1 = experiment: NCI-60 single-dose screen; format: cell-based; conditions: Homo sapiens, single dose 10 µM, '-' = no inhibition, read-out: % Growth Inhibition
Protocol: as §1, §2

K-562 = experiment: NCI-60 single-dose screen; format: cell-based; conditions: Homo sapiens, K562, single dose 10 µM, '-' = no inhibition, read-out: % Growth Inhibition
Protocol: as §1, §2

OVCAR-8 = experiment: NCI-60 single-dose screen; format: cell-based; conditions: Homo sapiens, single dose 10 µM, '-' = no inhibition, read-out: % Growth Inhibition
Protocol: as §1, §2

OVCAR-3 = experiment: NCI-60 single-dose screen; format: cell-based; conditions: Homo sapiens, single dose 10 µM, '-' = no inhibition, read-out: % Growth Inhibition
Protocol: as §1, §2

MOLT-4 = experiment: NCI-60 single-dose screen; format: cell-based; conditions: Homo sapiens, single dose 10 µM, '-' = no inhibition, read-out: % Growth Inhibition
Protocol: as §1, §2

HCC-2998 = experiment: NCI-60 single-dose screen; format: cell-based; conditions: Homo sapiens, single dose 10 µM, '-' = no inhibition, read-out: % Growth Inhibition
Protocol: as §1, §2

HT29 = experiment: NCI-60 single-dose screen; format: cell-based; conditions: Homo sapiens, HT-29, single dose 10 µM, '-' = no inhibition, read-out: % Growth Inhibition
Protocol: as §1, §2

SK-MEL-2 = experiment: NCI-60 single-dose screen; format: cell-based; conditions: Homo sapiens, single dose 10 µM, '-' = no inhibition, read-out: % Growth Inhibition
Protocol: as §1, §2

BT-549 = experiment: NCI-60 single-dose screen; format: cell-based; conditions: Homo sapiens, single dose 10 µM, '-' = no inhibition, read-out: % Growth Inhibition
Protocol: as §1, §2

SF-539 = experiment: NCI-60 single-dose screen; format: cell-based; conditions: Homo sapiens, single dose 10 µM, '-' = no inhibition, read-out: % Growth Inhibition
Protocol: as §1, §2

UACC-62 = experiment: NCI-60 single-dose screen; format: cell-based; conditions: Homo sapiens, single dose 10 µM, '-' = no inhibition, read-out: % Growth Inhibition
Protocol: as §1, §2

IGROV1 = experiment: NCI-60 single-dose screen; format: cell-based; conditions: Homo sapiens, IGROV-1, single dose 10 µM, '-' = no inhibition, read-out: % Growth Inhibition
Protocol: as §1, §2

SR = experiment: NCI-60 single-dose screen; format: cell-based; conditions: Homo sapiens, single dose 10 µM, '-' = no inhibition, read-out: % Growth Inhibition
Protocol: as §1, §2

KM12 = experiment: NCI-60 single-dose screen; format: cell-based; conditions: Homo sapiens, single dose 10 µM, '-' = no inhibition, read-out: % Growth Inhibition
Protocol: as §1, §2

MDA-MB-435 = experiment: NCI-60 single-dose screen; format: cell-based; conditions: Homo sapiens, single dose 10 µM, '-' = no inhibition, read-out: % Growth Inhibition
Protocol: as §1, §2

NCI-H460 = experiment: NCI-60 single-dose screen; format: cell-based; conditions: Homo sapiens, single dose 10 µM, '-' = no inhibition, read-out: % Growth Inhibition
Protocol: as §1, §2

NCI-H23 = experiment: NCI-60 single-dose screen; format: cell-based; conditions: Homo sapiens, single dose 10 µM, '-' = no inhibition, read-out: % Growth Inhibition
Protocol: as §1, §2

SF-268 = experiment: NCI-60 single-dose screen; format: cell-based; conditions: Homo sapiens, single dose 10 µM, '-' = no inhibition, read-out: % Growth Inhibition
Protocol: as §1, §2

NCI-H522 = experiment: NCI-60 single-dose screen; format: cell-based; conditions: Homo sapiens, single dose 10 µM, '-' = no inhibition, read-out: % Growth Inhibition
Protocol: as §1, §2

RXF 393 = experiment: NCI-60 single-dose screen; format: cell-based; conditions: Homo sapiens, single dose 10 µM, '-' = no inhibition, read-out: % Growth Inhibition
Protocol: as §1, §2

A498 = experiment: NCI-60 single-dose screen; format: cell-based; conditions: Homo sapiens, single dose 10 µM, '-' = no inhibition, read-out: % Growth Inhibition
Protocol: as §1, §2

NCI/ADR-RES = experiment: NCI-60 single-dose screen; format: cell-based; conditions: Homo sapiens, single dose 10 µM, '-' = no inhibition, read-out: % Growth Inhibition
Protocol: as §1, §2

MDA-MB-468 = experiment: NCI-60 single-dose screen; format: cell-based; conditions: Homo sapiens, single dose 10 µM, '-' = no inhibition, read-out: % Growth Inhibition
Protocol: as §1, §2

NCI-H322M = experiment: NCI-60 single-dose screen; format: cell-based; conditions: Homo sapiens, single dose 10 µM, '-' = no inhibition, read-out: % Growth Inhibition
Protocol: as §1, §2

UACC-257 = experiment: NCI-60 single-dose screen; format: cell-based; conditions: Homo sapiens, single dose 10 µM, '-' = no inhibition, read-out: % Growth Inhibition
Protocol: as §1, §2

DU-145 = experiment: NCI-60 single-dose screen; format: cell-based; conditions: Homo sapiens, single dose 10 µM, '-' = no inhibition, read-out: % Growth Inhibition
Protocol: as §1, §2

PC-3 = experiment: NCI-60 single-dose screen; format: cell-based; conditions: Homo sapiens, single dose 10 µM, '-' = no inhibition, read-out: % Growth Inhibition
Protocol: as §1, §2

TK-10 = experiment: NCI-60 single-dose screen; format: cell-based; conditions: Homo sapiens, single dose 10 µM, '-' = no inhibition, read-out: % Growth Inhibition
Protocol: as §1, §2

SN12C = experiment: NCI-60 single-dose screen; format: cell-based; conditions: Homo sapiens, single dose 10 µM, '-' = no inhibition, read-out: % Growth Inhibition
Protocol: as §1, §2

LOX IMVI = experiment: NCI-60 single-dose screen; format: cell-based; conditions: Homo sapiens, single dose 10 µM, '-' = no inhibition, read-out: % Growth Inhibition
Protocol: as §1, §2

M14 = experiment: NCI-60 single-dose screen; format: cell-based; conditions: Homo sapiens, single dose 10 µM, '-' = no inhibition, read-out: % Growth Inhibition
Protocol: as §1, §2

HL-60(TB) = experiment: NCI-60 single-dose screen; format: cell-based; conditions: Homo sapiens, single dose 10 µM, '-' = no inhibition, read-out: % Growth Inhibition
Protocol: as §1, §2

SW-620 = experiment: NCI-60 single-dose screen; format: cell-based; conditions: Homo sapiens, single dose 10 µM, '-' = no inhibition, read-out: % Growth Inhibition
Protocol: as §1, §2

SF-295 = experiment: NCI-60 single-dose screen; format: cell-based; conditions: Homo sapiens, single dose 10 µM, '-' = no inhibition, read-out: % Growth Inhibition
Protocol: as §1, §2

SNB-19 = experiment: NCI-60 single-dose screen; format: cell-based; conditions: Homo sapiens, single dose 10 µM, '-' = no inhibition, read-out: % Growth Inhibition
Protocol: as §1, §2

HCT-15 = experiment: NCI-60 single-dose screen; format: cell-based; conditions: Homo sapiens, single dose 10 µM, '-' = no inhibition, read-out: % Growth Inhibition
Protocol: as §1, §2

CAKI-1 = experiment: NCI-60 single-dose screen; format: cell-based; conditions: Homo sapiens, single dose 10 µM, '-' = no inhibition, read-out: % Growth Inhibition
Protocol: as §1, §2

CCRF-CEM = experiment: NCI-60 single-dose screen; format: cell-based; conditions: Homo sapiens, single dose 10 µM, '-' = no inhibition, read-out: % Growth Inhibition
Protocol: as §1, §2

MCF7 = experiment: NCI-60 single-dose screen; format: cell-based; conditions: Homo sapiens, single dose 10 µM, '-' = no inhibition, read-out: % Growth Inhibition
Protocol: as §1, §2

SK-MEL-28 = experiment: NCI-60 single-dose screen; format: cell-based; conditions: Homo sapiens, single dose 10 µM, '-' = no inhibition, read-out: % Growth Inhibition
Protocol: as §1, §2

MALME-3M = experiment: NCI-60 single-dose screen; format: cell-based; conditions: Homo sapiens, single dose 10 µM, '-' = no inhibition, read-out: % Growth Inhibition
Protocol: as §1, §2

SNB-75 = experiment: NCI-60 single-dose screen; format: cell-based; conditions: Homo sapiens, single dose 10 µM, '-' = no inhibition, read-out: % Growth Inhibition
Protocol: as §1, §2

UO-31 = experiment: NCI-60 single-dose screen; format: cell-based; conditions: Homo sapiens, single dose 10 µM, '-' = no inhibition, read-out: % Growth Inhibition
Protocol: as §1, §2

MDA-MB231/ATCC = experiment: NCI-60 single-dose screen; format: cell-based; conditions: Homo sapiens, MDA-MB-231, single dose 10 µM, '-' = no inhibition, read-out: % Growth Inhibition
Protocol: as §1, §2

Structure (SMILES): CCSc1nc(-c2ccc(OC)cc2)cc(-c2cccc(OC)c2)n1 [Compound 17, 2-(Ethylthio)-6-(3-methoxyphenyl)-4-(4-methoxyphenyl)pyrimidine]
- inhibition at 10 µM (EKVX): 1.03%
- inhibition at 10 µM (RPMI-8226): 3.83%
- inhibition at 10 µM (ACHN 1): < 0%
- inhibition at 10 µM (K-562): 9.37%
- inhibition at 10 µM (OVCAR-8): < 0%
- inhibition at 10 µM (OVCAR-3): < 0%
- inhibition at 10 µM (MOLT-4): 4.56%
- inhibition at 10 µM (HCC-2998): < 0%
- inhibition at 10 µM (HT29): < 0%
- inhibition at 10 µM (SK-MEL-2): 5.15%
- inhibition at 10 µM (BT-549): < 0%
- inhibition at 10 µM (SF-539): < 0%
- inhibition at 10 µM (UACC-62): < 0%
- inhibition at 10 µM (IGROV1): < 0%
- inhibition at 10 µM (SR): 18.4%
- inhibition at 10 µM (KM12): 2.23%
- inhibition at 10 µM (MDA-MB-435): 2.52%
- inhibition at 10 µM (NCI-H460): < 0%
- inhibition at 10 µM (NCI-H23): < 0%
- inhibition at 10 µM (SF-268): < 0%
- inhibition at 10 µM (NCI-H522): 5.39%
- inhibition at 10 µM (RXF 393): < 0%
- inhibition at 10 µM (A498): < 0%
- inhibition at 10 µM (NCI/ADR-RES): < 0%
- inhibition at 10 µM (MDA-MB-468): < 0%
- inhibition at 10 µM (NCI-H322M): < 0%
- inhibition at 10 µM (UACC-257): < 0%
- inhibition at 10 µM (DU-145): < 0%
- inhibition at 10 µM (PC-3): < 0%
- inhibition at 10 µM (TK-10): < 0%
- inhibition at 10 µM (SN12C): < 0%
- inhibition at 10 µM (LOX IMVI): 5.7%
- inhibition at 10 µM (M14): < 0%
- inhibition at 10 µM (HL-60(TB)): 18.6%
- inhibition at 10 µM (SW-620): 1.81%
- inhibition at 10 µM (SF-295): < 0%
- inhibition at 10 µM (SNB-19): < 0%
- inhibition at 10 µM (HCT-15): 2.62%
- inhibition at 10 µM (CAKI-1): 9.72%
- inhibition at 10 µM (CCRF-CEM): 2.15%
- inhibition at 10 µM (MCF7): 11%
- inhibition at 10 µM (SK-MEL-28): < 0%
- inhibition at 10 µM (MALME-3M): < 0%
- inhibition at 10 µM (SNB-75): < 0%
- inhibition at 10 µM (UO-31): 13.7%
- inhibition at 10 µM (MDA-MB231/ATCC): 6.41%
- melting point: 221 to 222 °C
